Melting point data for 36 molecules are collected here from patent publication US20060188938A1, “Compounds for inhibiting beta-amyloid production and methods of identifying the compounds” (priority 2005, published 2006).

The structures appear in SMILES notation.

`CC1=C(C(=O)OC(C)(C)C)C(c2ccccc2[N+](=O)[O-])C(C(=O)OC(C)(C)C)=C(C)N1` [Example 15, Di-tert-butyl 1,4-dihydro-2,6-dimethyl-4-(2-nitrophenyl)pyridine-3,5-dicarboxylate] displayed a melting point of 159 to 161 °C.
The molecule `C=CCOC(=O)C1=C(C)NC(C)=C(C(=O)OCC=C)C1c1ccccc1Cl` [Example 16, Diallyl 4-(2-chlorophenyl)-1,4-dihydro-2,6-dimethylpyridine-3,5-dicarboxylate] displayed a melting point of 98 to 99 °C.
`COCC1=C(C(=O)OC)C(c2ccccc2Cl)C(C(=O)OC)=C(COC)N1` [Example 17, Dimethyl 4-(2-chlorophenyl)-1,4-dihydro-2,6-bis(methoxymethyl)pyridine-3,5-dicarboxylate] had a melting point of 137 to 138 °C.
`CCOC(=O)C1=C(C)NC(C)=C(C(=O)OCC)C1c1ccccc1I` [Example 18, Diethyl 1,4-dihydro-4-(2-iodophenyl)-2,6-dimethylpyridine-3,5-dicarboxylate] came in with a melting point of 173 to 174.5 °C.
`COC(=O)C1=C(C)NC(C)=C(C(=O)OC)C1c1ccccc1Br` [Example 19, Dimethyl 4-(2-bromophenyl)-1,4-dihydro-2,6-dimethylpyridine-3,5-dicarboxylate] registered a melting point of 164 to 165 °C.
In turn, `CC1=C(C(=O)OC(C)(C)C)C(c2cccc(Cl)c2)C(C(=O)OC(C)(C)C)=C(C)N1` [Example 21, Di-tert-butyl 4-(3-chlorophenyl)-1,4-dihydro-2,6-dimethylpyridine-3,5-dicarboxylate] returned a melting point of 189.5 to 190.5 °C.
The result for `CCOC(=O)C1=C(C)NC(C)=C(C(=O)OCC)C1c1ccc(Cl)cc1` [Example 22, Diethyl 4-(4-chlorophenyl)-1,4-dihydro-2,6-dimethylpyridine-3,5-dicarboxylate] reads 151 to 152 °C; that for `CC1=C(C(=O)OC(C)(C)C)C(c2ccc(Cl)cc2)C(C(=O)OC(C)(C)C)=C(C)N1` [Example 23, Di-tert-butyl 4-(4-chlorophenyl)-1,4-dihydro-2,6-dimethylpyridine-3,5-dicarboxylate], 191.5 to 192.5 °C; that for `CCOC(=O)C1=C(C)NC(C)=C(C(=O)OCC)C1c1cccc(Br)c1` [Example 24, Diethyl 4-(3-bromophenyl)-1,4-dihydro-2,6-dimethylpyridine-3,5-dicarboxylate], 125 to 126 °C.
Then `CC1=C(C(=O)OC(C)(C)C)C(c2cccc(Br)c2)C(C(=O)OC(C)(C)C)=C(C)N1` [Example 25, Di-tert-butyl 4-(3-bromophenyl)-1,4-dihydro-2,6-dimethylpyridine-3,5-dicarboxylate], with 195 to 196 °C.
As to `CC1=C(C(=O)OC(C)(C)C)C(c2ccc(Br)cc2)C(C(=O)OC(C)(C)C)=C(C)N1` [Example 27, Di-tert-butyl 4-(4-bromophenyl)-1,4-dihydro-2.6-dimethylpyridine-3,5-dicarboxylate], the melting point was in the range of 206 to 207 °C.
`CC1=C(C(=O)OC(C)(C)C)C(c2ccccc2I)C(C(=O)OC(C)(C)C)=C(C)N1` [Example 28, Di-tert-butyl 1,4-dihydro-4-(2-iodophenyl)-2.6-dimethylpyridine-3,5-dicarboxylate] had a melting point of 184 to 185 °C.
The molecule `CCOC(=O)C1=C(C)NC(C)=C(C(=O)OCC)C1c1cccc(Cl)c1Cl` [Example 31, Diethyl 4-(2,3-dichlorophenyl)-1,4-dihydro-2,6-dimethylpyridine-3,5-dicarboxylate] yielded a melting point of 125 to 126 °C.
Consider `CC1=C(C(=O)OC(C)(C)C)C(c2cccc(Cl)c2Cl)C(C(=O)OC(C)(C)C)=C(C)N1` [Example 32, Di-tert-butyl 4-(2,3-dichlorophenyl)-1,4-dihydro-2,6-dimethylpyridine-3,5-dicarboxylate], for which the melting point is 144 to 145 °C.
The result for `CCOC(=O)C1=C(C)NC(C)=C(C(=O)OCC)C1c1cc(Cl)ccc1Cl` [Example 34, Diethyl 4-(2,5-dichlorophenyl)-1,4-dihydro-2,6-dimethylpyridine-3,5-dicarboxylate] reads 166.5 to 167.5 °C; that for `CC1=C(C(=O)OC(C)(C)C)C(c2cc(Cl)ccc2Cl)C(C(=O)OC(C)(C)C)=C(C)N1` [Example 35, Di-tert-butyl 4-(2,5-dichlorophenyl)-1,4-dihydro-2,6-dimethylpyridine-3,5-dicarboxylate], 181 to 183 °C.
Then `CCOC(=O)C1=C(C)NC(C)=C(C(=O)OCC)C1c1c(Cl)cccc1Cl` [Example 36, Diethyl 4-(2,6-dichlorophenyl)-1,4-dihydro-2,6-dimethylpyridine-3,5-dicarboxylate], with 134 to 135 °C; and `CCOC(=O)C1=C(C)NC(C)=C(C(=O)OCC)C1c1cc(Cl)cc(Cl)c1` [Example 37, Diethyl 4-(3,5-dichlorophenyl)-1,4-dihydro-2,6-dimethylpyridine-3,5-dicarboxylate], with 102 to 104 °C.
The result for `CCOC(=O)C1=C(C)NC(C)=C(C(=O)OCC)C1c1cccc(F)c1F` [Example 38, Diethyl 4-(2,3-difluorophenyl)-1,4-dihydro-2,6-dimethylpyridine-3,5-dicarboxylate] reads 161 to 162 °C; that for `C=CCOC(=O)C1=C(C)NC(C)=C(C(=O)OCC=C)C1c1ccc(Br)cc1` [Example 40, Diallyl 4-(4-bromophenyl)-1,4-dihydro-2,6-dimethylpyridine-3,5-dicarboxylate], 130 to 131 °C.
Consider `CC1=C(C(=O)OC(C)(C)C)C(c2ccc(F)c(Br)c2)C(C(=O)OC(C)(C)C)=C(C)N1` [Example 42, Di-tert-butyl 4-(3-bromo-4-fluorophenyl)-1,4-dihydro-2,6-dimethylpyridine-3,5-dicarboxylate], for which the melting point was in the range of 171 to 172 °C.
The result for `CCOC(=O)C1=C(C)NC(C)=C(C(=O)OCC)C1c1ccc(Br)cc1F` [Example 43, Diethyl 4-(4-bromo-2-fluorophenyl)-1,4-dihydro-2,6-dimethylpyridine-3,5-dicarboxylate] reads 154 to 155 °C; that for `CC1=C(C(=O)OC(C)(C)C)C(c2ccc(Br)cc2F)C(C(=O)OC(C)(C)C)=C(C)N1` [Example 44, Di-tert-butyl 4-(4-bromo-2-fluorophenyl)-1,4-dihydro-2,6-dimethylpyridine-3,5-dicarboxylate], 187 to 188 °C; that for `COCCOC(=O)C1=C(C)NC(C)=C(C(=O)OCCOC)C1c1ccc(Br)cc1` [Example 46, Bis(2-methoxyethyl) 4-(4-bromophenyl)-1,4-dihydro-2,6-dimethylpyridine-3,5-dicarboxylate], 116 to 117 °C.
The result for `CCOC(=O)C1=C(C)NC(C)=C(C(=O)OCC)C1c1cc(Br)ccc1F` [Example 47, Diethyl 4-(5-bromo-2-fluorophenyl)-1,4-dihydro-2,6-dimethylpyridine-3,5-dicarboxylate] reads 118 to 119 °C.
As to `CC1=C(C(=O)OC(C)(C)C)C(c2cc(Br)ccc2F)C(C(=O)OC(C)(C)C)=C(C)N1` [Example 48, Di-tert-butyl 4-(5-bromo-2-fluorophenyl)-1,4-dihydro-2,6-dimethylpyridine-3,5-dicarboxylate], the melting point lay within 173 to 174 °C.
With `CC1=C(C(=O)OC(C)(C)C)C(c2cccc(F)c2)C(C(=O)OC(C)(C)C)=C(C)N1` [Example 50, Di-tert-butyl 4-(3-fluorophenyl)-1,4-dihydro-2,6-dimethylpyridine-3,5-dicarboxylate], the melting point is 178 to 179 °C.
In the case of `CCOC(=O)C1=C(C)NC(C)=C(C(=O)OCC)C1c1ccc(F)cc1` [Example 51, Diethyl 4-(4-fluorophenyl)-1,4-dihydro-2,6-dimethylpyridine-3,5-dicarboxylate], the melting point fell in the range of 150 to 151 °C.
The result for `CC1=C(C(=O)OC(C)(C)C)C(c2ccc(F)cc2)C(C(=O)OC(C)(C)C)=C(C)N1` [Example 52, Di-tert-butyl 4-(4-fluorophenyl)-1,4-dihydro-2,6-dimethylpyridine-3,5-dicarboxylate] reads 149 to 150 °C; that for `COCC1=C(C(=O)OC)C(c2ccc(Br)cc2)C(C(=O)OC)=C(COC)N1` [Example 53, Dimethyl 4-(4-bromophenyl)-1,4-dihydro-2,6-bis(methoxymethyl)pyridine-3,5-dicarboxylate], 162 to 163 °C; that for `CCOC(=O)C1=C(C)N(Cc2ccccc2)C(C)=C(C(=O)OCC)C1c1ccc(Br)cc1` [Example 54, Diethyl 1-benzyl-4-(4-bromophenyl)-1,4-dihydro-2,6-dimethylpyridine-3,5-dicarboxylate], 168 to 169 °C.
Then `CC1=C(C(=O)OC(C)(C)C)C(c2ccc(C)cc2C)C(C(=O)OC(C)(C)C)=C(C)N1` [Example 55, Di-tert-butyl 1,4-dihydro-2,6-dimethyl-4-(2,4-dimethylphenyl)pyridine-3,5-dicarboxylate], with 197 to 198 °C; and `CCOC(=O)C1=C(C)NC(C)=C(C(=O)OC)C1c1ccccc1Cl` (stereo not drawn) [Example 56, 3-Ethyl 5-methyl 4-(2-chlorophenyl)-1,4-dihydro-2,6-dimethylpyridine-3,5-dicarboxylate], with 125 to 127 °C; and `COC(=O)C1=C(C)NC(C)=C(C(C)=O)C1c1ccccc1Cl` (stereo not drawn) [Example 57, Methyl 5-acetyl-4-(2-chlorophenyl)-1,4-dihydro-2,6-dimethylpyridine-3-carboxylate], with 183 to 184 °C.
Then `CCOC(=O)C1=C(C)NC(C)=C(C(=O)OC)C1c1ccccc1Br` (stereo not drawn) [Example 58, 3-Ethyl 5-methyl 4-(2-bromophenyl)-1,4-dihydro-2,6-dimethylpyridine-3,5-dicarboxylate], with 134.5 to 135.5 °C; and `COC(=O)C1=C(C)NC(C)=C(C(C)=O)C1c1ccccc1Br` (stereo not drawn) [Example 59, Methyl 5-acetyl-4-(2-bromophenyl)-1,4-dihydro-2,6-dimethylpyridine-3-carboxylate], with 146 to 148 °C.

The melting point is the temperature of the solid-liquid transition.
